Measured values: patent publication US9994617B2, “Modulation of structured polypeptide specificity” (BICYCLE THERAPEUTICS LIMITED, priority 2011, dated 2018)
Numbered stars: 1 amine (or outer) side, 2 acyl side, 3 side chain; on linkers, the order of the positions; unused ones are H or OH. Bridge positions count the residues as written; N and C are the ends. Square brackets hold non-standard residues; d marks the D form. Peptide text beside a SMILES is read from it. NMeW = CN[C@@H](Cc1c[nH]c2ccccc12)C(=O)O; TBMB = c1c(C[*:1])cc(C[*:3])cc1C[*:2]; NMeS = CN[C@@H](CO)C(=O)O

What follows are molecules tested against human plasma kallikrein (hPK) (Homo sapiens, UniProt P03952) (assay: Enzyme inhibition assay, human plasma kallikrein).

SMILES	Ki [nM]
CSCC[C@@H]1NC(=O)[C@H]([C@@H](C)O)NC(=O)[C@@H]2CSCc3cc(cc(c3)CSC[C@@H](C(=O)N[C@@H](C)C(N)=O)NC(=O)[C@H](Cc3c[nH]c4ccccc34)NC(=O)[C@H](CC(N)=O)NC(=O)[C@H](CCC(N)=O)NC1=O)CSC[C@H](NC(=O)[C@H](C)N)C(=O)N[C@@H]([C@@H](C)O)C(=O)N[C@@H](Cc1c[nH]c3ccccc13)C(=O)N1CCC[C@H]1C(=O)N[C@@H](C)C(=O)N[C@@H](CCCNC(=N)N)C(=O)N2 [06-A2*] (H-ACTWPARCTMQNWCA-NH2; linker 2-8-14 via TBMB)	181
CC(=O)N[C@H]1CSCc2cc3cc(c2)CSC[C@H](NC(=O)[C@H](CCCNC(=N)N)NC(=O)[C@H](C)NC(=O)[C@@H]2CCCN2C(=O)[C@H](Cc2c[nH]c4ccccc24)NC(=O)[C@H](CO)N(C)C1=O)C(=O)N[C@@H](CC(C)C)C(=O)N[C@@H](Cc1c[nH]cn1)C(=O)N[C@@H](CCC(N)=O)C(=O)N[C@@H](CC(=O)O)C(=O)N[C@@H](CC(C)C)C(=O)N[C@H](C(N)=O)CSC3 [Ac-(06-34-18) NMeSer1] (Ac-C[NMeS]WPARCLHQDLC-NH2; linker 1-7-13 via TBMB)	0.5
CC(=O)N[C@H]1CSCc2cc3cc(c2)CSC[C@H](NC(=O)[C@H](CCCNC(=N)N)NC(=O)[C@H](C)NC(=O)[C@@H]2CCCN2C(=O)[C@H](Cc2c[nH]c4ccccc24)N(C)C(=O)[C@H](CO)NC1=O)C(=O)N[C@@H](CC(C)C)C(=O)N[C@@H](Cc1c[nH]cn1)C(=O)N[C@@H](CCC(N)=O)C(=O)N[C@@H](CC(=O)O)C(=O)N[C@@H](CC(C)C)C(=O)N[C@H](C(N)=O)CSC3 [Ac-(06-34-18) NMeTrp2] (Ac-CS[NMeW]PARCLHQDLC-NH2; linker 1-7-13 via TBMB)	228
CC(=O)N[C@H]1CSCc2cc3cc(c2)CSC[C@H](NC(=O)[C@H](CCCNC(=N)N)NC(=O)[C@H](Cc2c[nH]c4ccccc24)NC(=O)[C@H](C)NC(=O)[C@H](CO)NC(=O)[C@@H]2CCCN2C1=O)C(=O)N[C@@H](CC(C)C)C(=O)N[C@@H](Cc1c[nH]cn1)C(=O)N[C@@H](CCC(N)=O)C(=O)N[C@@H](CC(=O)O)C(=O)N[C@@H](CC(C)C)C(=O)N[C@H](C(N)=O)CSC3 [Ac-(06-34-18) Scram1] (Ac-CPSAWRCLHQDLC-NH2; linker 1-7-13 via TBMB)	1090
CC(=O)N[C@H]1CSCc2cc3cc(c2)CSC[C@H](NC(=O)[C@H](CCCNC(=N)N)NC(=O)[C@@H]2CCCN2C(=O)[C@H](CO)NC(=O)[C@H](C)NC(=O)[C@H](Cc2c[nH]c4ccccc24)NC1=O)C(=O)N[C@@H](CC(C)C)C(=O)N[C@@H](Cc1c[nH]cn1)C(=O)N[C@@H](CCC(N)=O)C(=O)N[C@@H](CC(=O)O)C(=O)N[C@@H](CC(C)C)C(=O)N[C@H](C(N)=O)CSC3 [Ac-(06-34-18) Scram2] (Ac-CWASPRCLHQDLC-NH2; linker 1-7-13 via TBMB)	11400
CC(=O)N[C@H]1CSCc2cc3cc(c2)CSC[C@H](NC(=O)[C@H](CCCNC(=N)N)NC(=O)[C@H](CO)NC(=O)[C@H](Cc2c[nH]c4ccccc24)NC(=O)[C@@H]2CCCN2C(=O)[C@H](C)NC1=O)C(=O)N[C@@H](CC(C)C)C(=O)N[C@@H](Cc1c[nH]cn1)C(=O)N[C@@H](CCC(N)=O)C(=O)N[C@@H](CC(=O)O)C(=O)N[C@@H](CC(C)C)C(=O)N[C@H](C(N)=O)CSC3 [Ac-(06-34-18) Scram3] (Ac-CAPWSRCLHQDLC-NH2; linker 1-7-13 via TBMB)	1890
CC(=O)N[C@H]1CSCc2cc3cc(c2)CSC[C@H](NC(=O)[C@@H]2CCCN2C(=O)[C@H](CO)NC(=O)[C@H](CCCNC(=N)N)NC(=O)[C@H](C)NC(=O)[C@H](Cc2c[nH]c4ccccc24)NC1=O)C(=O)N[C@@H](CC(C)C)C(=O)N[C@@H](Cc1c[nH]cn1)C(=O)N[C@@H](CCC(N)=O)C(=O)N[C@@H](CC(=O)O)C(=O)N[C@@H](CC(C)C)C(=O)N[C@H](C(N)=O)CSC3 [Ac-(06-34-18) Scram4] (Ac-CWARSPCLHQDLC-NH2; linker 1-7-13 via TBMB)	67500
CC(=O)N[C@H]1CSCc2cc3cc(c2)CSC[C@H](NC(=O)[C@H](C)NC(=O)[C@@H]2CCCN2C(=O)[C@H](Cc2c[nH]c4ccccc24)NC(=O)[C@H](CO)NC1=O)C(=O)N[C@@H](CC(C)C)C(=O)N[C@@H](Cc1c[nH]cn1)C(=O)N[C@@H](CCC(N)=O)C(=O)N[C@@H](CC(=O)O)C(=O)N[C@@H](CC(C)C)C(=O)N[C@H](C(N)=O)CSC3 [Ac-(06-34-18) Δ Arg5] (Ac-CSWPACLHQDLC-NH2; linker 1-6-12 via TBMB)	> 100000
CC(=O)N[C@H]1CSCc2cc3cc(c2)CSC[C@H](NC(=O)C[C@H](CCCNC(=N)N)NC(=O)[C@H](C)NC(=O)[C@@H]2CCCN2C(=O)[C@H](Cc2c[nH]c4ccccc24)NC(=O)[C@H](CO)NC1=O)C(=O)N[C@@H](CC(C)C)C(=O)N[C@@H](Cc1c[nH]cn1)C(=O)N[C@@H](CCC(N)=O)C(=O)N[C@@H](CC(=O)O)C(=O)N[C@@H](CC(C)C)C(=O)N[C@H](C(N)=O)CSC3 [Ac-(06-34-18) βhomoArg5]	8.2
CC(C)C[C@@H]1NC(=O)[C@H](CCC(=O)O)NC(=O)[C@H](CCCNC(=N)N)NC(=O)[C@H]([C@@H](C)O)NC(=O)[C@H](CC(C)C)NC(=O)[C@@H]2CSCc3cc(cc(c3)CSC[C@@H](C(=O)N[C@@H](C)C(N)=O)NC1=O)CSC[C@H](NC(=O)[C@H](C)N)C(=O)N[C@@H](C)C(=O)N[C@@H](Cc1c[nH]c3ccccc13)C(=O)N1CCC[C@H]1C(=O)N[C@@H](C)C(=O)N[C@@H](CCCCN)C(=O)N2 [Peptide 1B1] (H-ACAWPAKCLTRELCA-NH2; linker 2-8-14 via TBMB)	8.1
C[C@H](N)C(=O)N[C@H]1CSCc2cc3cc(c2)CSC[C@H](NC(=O)[C@H](CC(N)=O)NC(=O)[C@H](CC(N)=O)NC(=O)[C@H](Cc2ccc(O)cc2)NC(=O)CNC(=O)CNC1=O)C(=O)N[C@@H](CCCNC(=N)N)C(=O)N[C@@H](C)C(=O)N[C@@H](Cc1ccccc1)C(=O)N[C@@H](CO)C(=O)N[C@@H](Cc1ccc(O)cc1)C(=O)N[C@H](C(=O)N[C@@H](C)C(N)=O)CSC3 [Peptide 1F7] (H-ACGGYNNCRAFSYCA-NH2; linker 2-8-14 via TBMB)	2.2
CC(C)[C@@H]1NC(=O)[C@H](CCCNC(=N)N)NC(=O)[C@@H]2CSCc3cc(cc(c3)CSC[C@@H](C(=O)N[C@@H](C)C(N)=O)NC(=O)[C@H](C)NC1=O)CSC[C@H](NC(=O)[C@H](C)N)C(=O)N[C@@H](Cc1ccccc1)C(=O)N1CCC[C@H]1C(=O)N[C@@H](CCCCN)C(=O)N2 [Peptide 3A3] (H-ACFPKCRVACA-NH2; linker 2-6-10 via TBMB)	43.1
CC(C)[C@@H]1NC(=O)[C@H](CCCNC(=N)N)NC(=O)[C@@H]2CSCc3cc(cc(c3)CSC[C@@H](C(=O)N[C@@H](C)C(N)=O)NC(=O)[C@H](CC(N)=O)NC1=O)CSC[C@H](NC(=O)[C@H](C)N)C(=O)N[C@@H](Cc1ccccc1)C(=O)N[C@@H](CCCCN)C(=O)N[C@@H](CC(N)=O)C(=O)N2 [Peptide 3B2] (H-ACFKNCRVNCA-NH2; linker 2-6-10 via TBMB)	9
CC(C)[C@@H]1NC(=O)[C@H](CCCNC(=N)N)NC(=O)[C@@H]2CSCc3cc(cc(c3)CSC[C@@H](C(=O)N[C@@H](C)C(N)=O)NC(=O)[C@H](C)NC1=O)CSC[C@H](NC(=O)[C@H](C)N)C(=O)N[C@@H](Cc1ccccc1)C(=O)N[C@@H](CCCCN)C(=O)N[C@@H](Cc1c[nH]cn1)C(=O)N2 [Peptide 3B8] (H-ACFKHCRVACA-NH2; linker 2-6-10 via TBMB)	0.95
CC[C@H](C)[C@@H]1NC(=O)[C@H](C(C)C)NC(=O)[C@H](CCCNC(=N)N)NC(=O)[C@@H]2CSCc3cc(cc(c3)CSC[C@@H](C(=O)N[C@@H](C)C(N)=O)NC1=O)CSC[C@H](NC(=O)[C@H](C)N)C(=O)N[C@@H](Cc1ccccc1)C(=O)N[C@@H](CC(=O)O)C(=O)N1CCC[C@H]1C(=O)N2 [Peptide 3B9] (H-ACFDPCRVICA-NH2; linker 2-6-10 via TBMB)	90.8
CC(C)[C@@H]1NC(=O)[C@H](CCCNC(=N)N)NC(=O)[C@@H]2CSCc3cc(cc(c3)CSC[C@@H](C(=O)N[C@@H](C)C(N)=O)NC(=O)[C@H](CC(N)=O)NC1=O)CSC[C@H](NC(=O)[C@H](C)N)C(=O)N[C@@H](Cc1ccccc1)C(=O)N[C@@H](CC(N)=O)C(=O)N[C@@H](CCCCN)C(=O)N2 [Peptide 06-64] (H-ACFNKCRVNCA-NH2; linker 2-6-10 via TBMB)	4.8
CC(C)[C@@H]1NC(=O)[C@H](CCCNC(=N)N)NC(=O)[C@@H]2CSCc3cc(cc(c3)CSC[C@@H](C(=O)N[C@@H](C)C(N)=O)NC(=O)[C@H](CC(N)=O)NC1=O)CSC[C@H](NC(=O)[C@H](C)N)C(=O)N[C@@H](Cc1ccccc1)C(=O)N[C@@H](Cc1ccc(O)cc1)C(=O)N[C@@H](CCCCN)C(=O)N2 [Peptide 06-71] (H-ACFYKCRVNCA-NH2; linker 2-6-10 via TBMB)	15.2
CC(C)[C@@H]1NC(=O)[C@H](CCCNC(=N)N)NC(=O)[C@@H]2CSCc3cc(cc(c3)CSC[C@@H](C(=O)N[C@@H](C)C(N)=O)NC(=O)[C@H](CC(N)=O)NC1=O)CSC[C@H](NC(=O)[C@H](C)N)C(=O)N[C@@H](Cc1ccccc1)C(=O)N[C@@H](CCCCN)C(=O)N[C@@H](CCC(N)=O)C(=O)N2 [Peptide 06-94] (H-ACFKQCRVNCA-NH2; linker 2-6-10 via TBMB)	0.7

These molecules were tested against Human thrombin (Homo sapiens, UniProt P00734) (assay: Inhibition of paralogous protease thrombin).
Type: biochemical
Experimental: (§1) The target specificity of the isolated bicyclic peptide inhibitors was assessed by determining the inhibition of trypsin-like human serine proteases of the class S1A which comprises 79 members (Yousef, et al, Biochem Biophys Res Commun 2003, 305 (1), 28-36). The panel of proteases included hfXIa which shares the highest sequence identity with hPK (69%) as well as the structurally less related but vital human serine proteases thrombin (36%), plasmin (34% sequence identity with hPK) and factor XIIa (35%).

SMILES	IC50 [nM]
CC(C)[C@@H]1NC(=O)[C@H](CCCNC(=N)N)NC(=O)[C@@H]2CSCc3cc(cc(c3)CSC[C@@H](C(=O)N[C@@H](C)C(N)=O)NC(=O)[C@H](C)NC1=O)CSC[C@H](NC(=O)[C@H](C)N)C(=O)N[C@@H](Cc1ccccc1)C(=O)N[C@@H](CCCCN)C(=O)N[C@@H](Cc1c[nH]cn1)C(=O)N2 [Peptide 3B8] (H-ACFKHCRVACA-NH2; linker 2-6-10 via TBMB)	> 10000
CC(C)[C@@H]1NC(=O)[C@H](CCCNC(=N)N)NC(=O)[C@@H]2CSCc3cc(cc(c3)CSC[C@@H](C(=O)N[C@@H](C)C(N)=O)NC(=O)[C@H](CC(N)=O)NC1=O)CSC[C@H](NC(=O)[C@H](C)N)C(=O)N[C@@H](Cc1ccccc1)C(=O)N[C@@H](CCCCN)C(=O)N[C@@H](CCC(N)=O)C(=O)N2 [Peptide 06-94] (H-ACFKQCRVNCA-NH2; linker 2-6-10 via TBMB)	> 10000

What follows are molecules tested against T1, Human factor XIIa (hfXIIa) (Homo sapiens, UniProt P00748) (assay: Inhibition of paralogous protease factor XIIa).
T1 sequence (P00748 373-615 limits assumed): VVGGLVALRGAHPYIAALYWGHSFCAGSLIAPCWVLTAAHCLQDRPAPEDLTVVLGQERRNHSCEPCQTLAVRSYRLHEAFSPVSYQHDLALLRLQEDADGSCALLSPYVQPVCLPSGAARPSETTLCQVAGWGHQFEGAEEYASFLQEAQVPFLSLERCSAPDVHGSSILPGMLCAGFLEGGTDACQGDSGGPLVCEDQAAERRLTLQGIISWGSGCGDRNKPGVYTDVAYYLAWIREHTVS
Type: biochemical
Experimental: as §1

SMILES	IC50 [nM]
CSCC[C@@H]1NC(=O)[C@H]([C@@H](C)O)NC(=O)[C@@H]2CSCc3cc(cc(c3)CSC[C@@H](C(=O)N[C@@H](C)C(N)=O)NC(=O)[C@H](Cc3c[nH]c4ccccc34)NC(=O)[C@H](CC(N)=O)NC(=O)[C@H](CCC(N)=O)NC1=O)CSC[C@H](NC(=O)[C@H](C)N)C(=O)N[C@@H]([C@@H](C)O)C(=O)N[C@@H](Cc1c[nH]c3ccccc13)C(=O)N1CCC[C@H]1C(=O)N[C@@H](C)C(=O)N[C@@H](CCCNC(=N)N)C(=O)N2 [06-A2*] (H-ACTWPARCTMQNWCA-NH2; linker 2-8-14 via TBMB)	> 10000
